Measured values published in patent US12448377B2, “Heterocyclic compound” (Takeda Pharmaceutical Company Limited, priority 2019, dated 2025).

Experiments:
[1] = test system: cynomolgus monkeys; assay: Evaluation of wake-promoting effects in cynomolgus monkeys (EEG/EMG/EOG); type: in vivo, cynomolgus monkey; settings: s.c., at ZT12, 4 h after administration
Method: The wake-promoting effects were evaluated by measuring the electroencephalogram (EEG), electromyogram (EMG) and electrooculogram (EOG) in cynomolgus monkeys. Under isoflurane anesthesia (1-5%, Pfizer Japan Inc., Tokyo, Japan), male cynomolgus monkeys (2-3 years old, Hamri Co., Ltd., Ibaraki, Japan) were surgically implanted with radio-telemetry transmitters (TL10M3-D70-EEE, Data Sciences International Inc., MN, USA). EEG leads were stereotaxically positioned at the parietal area and secured to the cranium with stainless-steel screws in contact with the dura. […] Bilateral EMG leads were implanted into the back cervical muscles. After the surgery, each monkey was given penicillin (100,000 units/head, i.m., Meiji Seika Pharma Co., Ltd., Tokyo, Japan), buprenorphine (0.02 mg/kg, i.m., Otsuka Pharmaceutical Co., Ltd., Tokyo, Japan) and prednisolone (1 mg/kg, s.c., Kyoritsu Seiyaku Co., Ltd., Tokyo, Japan) daily for one week. After at least a 1-month recovery period in home cages, the monkeys were habituated to the recording chamber (an acrylic cage 60W×55D×75H (cm)) located in a soundproof, electrically shielded room. After confirming that the monkeys slept sufficiently in the experimental room, the cortical EEG, EMG and EOG signals were recorded using Dataquest ART software (Data Sciences International Inc., MN, USA). The signals were semi automatically scored in 20 sec epochs by a sleep scoring system (SleepSign, Kissei Comtec Co., Ltd., Nagano, Japan). This preliminary scoring was visually inspected and corrected if necessary. Test compound (0.1, 0.3, 1 or 10 mg/kg, Table 4) dissolved in a mixed solution containing 5% DMSO, 5% Cremophor EL, 20% PEG400 and 70% soluplus (1% (w/v)), or vehicle (i.e., a mixed solution containing 5% DMSO, 5% Cremophor EL, 20% PEG400 and 70% soluplus (1% (w/v))) was administered subcutaneously (s.c.) to the cynomolgus monkeys at ZT12 in a volume of 0.5 mL/kg in a pre-post design. The EEG, EMG and EOG recordings were performed for 4 h after the compound administration. The time spent in wakefulness for 4 h after administration (% of vehicle treatment) was calculated by using SleepSign.

[2] = target: T1, human orexin type 2 receptor (Homo sapiens, UniProt O43614); assay: Measurement of orexin type 2 receptor agonist activity (calcium fluorescence, CHO cells forcibly expressing human OX2 receptor); type: cell-based; settings: compound at 3 μM, DMSO = 0%, orexin A (human) 10 nM = 100%
T1 construct: expressed in transfected cells
T1 sequence (O43614 1-444): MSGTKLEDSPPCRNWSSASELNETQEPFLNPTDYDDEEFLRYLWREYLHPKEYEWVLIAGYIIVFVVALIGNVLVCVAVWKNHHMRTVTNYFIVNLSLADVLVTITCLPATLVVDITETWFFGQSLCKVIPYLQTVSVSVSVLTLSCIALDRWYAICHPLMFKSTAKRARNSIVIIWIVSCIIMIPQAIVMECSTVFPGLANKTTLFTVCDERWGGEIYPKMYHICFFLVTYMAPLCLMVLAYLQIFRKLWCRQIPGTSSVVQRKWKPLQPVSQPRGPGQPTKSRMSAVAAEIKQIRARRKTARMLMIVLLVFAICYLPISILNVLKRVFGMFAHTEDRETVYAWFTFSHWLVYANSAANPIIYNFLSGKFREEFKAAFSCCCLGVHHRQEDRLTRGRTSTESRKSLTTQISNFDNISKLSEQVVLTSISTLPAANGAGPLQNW
Method in brief: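 Agonism measured as Fluo-4 calcium fluorescence in CHO-K1 cells stably expressing human OX2 receptor, loaded 30 min at 37° C then 30 min at room temperature with probenecid. Signal recorded about 2 min 40 sec after compound; activity (%) normalised to DMSO (0%) and 10 nM human orexin A (100%).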

Row | SMILES | OX2R agonist activity (3 μM, %) [2] [%] | also measured
1 | Cc1ccc2n(c1=O)C(COC1CCC(C3CC3)CC1)C(NS(=O)(=O)C1CC1)CC2 [Example 113, rel-N-[(3S,4R)-4-({[(1s,4S)-4-cyclopropylcyclohexyl]oxy}methyl)-7-methyl-6-oxo-1,3,4,6-tetrahydro-2H-quinolizin-3-yl]cyclopropanesulfonamide] | 87 | Wakefulness time (% of vehicle treatment) (Mean, n = 2) ([1]; 0.1 mg/kg): 380.66 % of vehicle treatment
2 | CC#CC1CCC(OCC2C(NS(=O)(=O)C3CC3)CCc3ccc(C)c(=O)n32)CC1 [Example 148, rel-N-[(3S,4R)-7-methyl-6-oxo-4-({[(1s,4S)-4-(prop-1-yn-1-yl)cyclohexyl]oxy}methyl)-1,3,4,6-tetrahydro-2H-quinolizin-3-yl]cyclopropanesulfonamide] | 97 | Wakefulness time (% of vehicle treatment) (Mean, n = 2) ([1]; 1 mg/kg): 324.87 % of vehicle treatment
3 | Cc1ccc2n(c1=O)C(COC1CCC(c3ccccc3)CC1)C(NS(C)(=O)=O)CC2 [Example 6, rel-N-[(3S,4R)-7-methyl-6-oxo-4-({[(1s,4S)-4-phenylcyclohexyl]oxy}methyl)-1,3,4,6-tetrahydro-2H-quinolizin-3-yl]methanesulfonamide] | 92 | Wakefulness time (% of vehicle treatment) (Mean, n = 2) ([1]; 0.3 mg/kg): 352.87 % of vehicle treatment
4 | Cc1ccccc1C1CCC(OCC2C(NS(C)(=O)=O)CCc3ccc(C)c(=O)n32)CC1 (racemic) [Example 19, rac-N-[(3S,4R)-7-methyl-4-({[(1s,4S)-4-(2-methylphenyl)cyclohexyl]oxy}methyl)-6-oxo-1,3,4,6-tetrahydro-2H-quinolizin-3-yl]methanesulfonamide] | 89 | 
5 | Cc1ccc2n(c1=O)C(COC1CCC(C(F)(F)F)CC1)C(NS(C)(=O)=O)CC2 (racemic) [Example 37, rac-N-[(3S,4R)-7-methyl-6-oxo-4-({[(1s,4S)-4-(trifluoromethyl)cyclohexyl]oxy}methyl)-1,3,4,6-tetrahydro-2H-quinolizin-3-yl]methanesulfonamide] | 94 | 
6 | Cc1ccccc1C1CCC(OCC2C(NS(=O)(=O)N(C)C)CCc3ccc(C)c(=O)n32)CC1 (racemic) [Example 31, rac-N,N-dimethyl-N′-[(3S,4R)-7-methyl-4-({[(1s,4S)-4-(2-methylphenyl)cyclohexyl]oxy}methyl)-6-oxo-1,3,4,6-tetrahydro-2H-quinolizin-3-yl]sulfuric diamide] | 89 | 
7 | Cc1ccc2n(c1=O)C(COC1CCC(C3CCC3)CC1)C(NS(C)(=O)=O)CC2 (racemic) [Example 93, rac-N-[(3S,4R)-4-({[(1s,4S)-4-cyclobutylcyclohexyl]oxy}methyl)-7-methyl-6-oxo-1,3,4,6-tetrahydro-2H-quinolizin-3-yl]methanesulfonamide] | 97 | 
8 | Cc1cccc(C2CCC(OCC3C(NS(=O)(=O)N(C)C)CCc4ccc(C)c(=O)n43)CC2)c1 (racemic) [Example 32, rac-N,N-dimethyl-N′-[(3S,4R)-7-methyl-4-({[(1s,4S)-4-(3-methylphenyl)cyclohexyl]oxy}methyl)-6-oxo-1,3,4,6-tetrahydro-2H-quinolizin-3-yl]sulfuric diamide] | 81 | 
9 | CCC1CCC(OCC2C(NS(=O)(=O)C3CC3)CCc3ccc(C)c(=O)n32)CC1 (racemic) [Example 10, rac-N-[(3S,4R)-4-({[(1s,4S)-4-ethylcyclohexyl]oxy}methyl)-7-methyl-6-oxo-1,3,4,6-tetrahydro-2H-quinolizin-3-yl]cyclopropanesulfonamide] | 97 | 

The next lines start with results.

Row | OX2R agonist activity (3 μM, %) [2] [%] | SMILES | also measured
10 | 68 | CCC1CCC(OCC2C(NS(C)(=O)=O)CCc3ccc(C)c(=O)n32)CC1 [Example 9, rel-N-[(3S,4R)-4-({[(1s,4S)-4-ethylcyclohexyl]oxy}methyl)-7-methyl-6-oxo-1,3,4,6-tetrahydro-2H-quinolizin-3-yl]methanesulfonamide] | Wakefulness time (% of vehicle treatment) (Mean, n = 2) ([1]; 0.3 mg/kg): 521.43 % of vehicle treatment
11 | 96 | CCOC1CCC(OCC2C(NS(C)(=O)=O)CCc3ccc(C)c(=O)n32)CC1 [Example 145, rel-N-[(3S,4R)-4-({[(1s,4S)-4-ethoxycyclohexyl]oxy}methyl)-7-methyl-6-oxo-1,3,4,6-tetrahydro-2H-quinolizin-3-yl]methanesulfonamide] | Wakefulness time (% of vehicle treatment) (Mean, n = 2) ([1]; 10 mg/kg): 277.67 % of vehicle treatment
12 | 99 | CC#CC1CCC(OCC2C(NS(=O)(=O)CC)CCc3ccc(C)c(=O)n32)CC1 [Example 147, rel-N-[(3S,4R)-7-methyl-6-oxo-4-({[(1s,4S)-4-(prop-1-yn-1-yl)cyclohexyl]oxy}methyl)-1,3,4,6-tetrahydro-2H-quinolizin-3-yl]ethanesulfonamide] | Wakefulness time (% of vehicle treatment) (Mean, n = 2) ([1]; 1 mg/kg): 389.64 % of vehicle treatment
13 | 85 | CCC1CCC(OCC2C(NS(=O)(=O)N(C)C)CCc3ccc(C)c(=O)n32)CC1 (racemic) [Example 27, rac-N′-[(3S,4R)-4-({[(1s,4S)-4-ethylcyclohexyl]oxy}methyl)-7-methyl-6-oxo-1,3,4,6-tetrahydro-2H-quinolizin-3-yl]-N,N-dimethylsulfuric diamide] | 
14 | 94 | CCS(=O)(=O)NC1CCc2ccc(C)c(=O)n2C1COC1CCC(C2CC2)CC1 [Example 112, rel-N-[(3S,4R)-4-({[(1s,4S)-4-cyclopropylcyclohexyl]oxy}methyl)-7-methyl-6-oxo-1,3,4,6-tetrahydro-2H-quinolizin-3-yl]ethanesulfonamide] | Wakefulness time (% of vehicle treatment) (Mean, n = 2) ([1]; 0.1 mg/kg): 671.65 % of vehicle treatment
15 | 91 | C=CC1CCC(OCC2C(NS(C)(=O)=O)CCc3ccc(C)c(=O)n32)CC1 (racemic) [Example 99, rac-N-[(3S,4R)-4-({[(1s,4S)-4-ethenylcyclohexyl]oxy}methyl)-7-methyl-6-oxo-1,3,4,6-tetrahydro-2H-quinolizin-3-yl]methanesulfonamide] | 
16 | 85 | CCS(=O)(=O)NC1CCc2ccc(C)c(=O)n2C1COC1CCC(C)CC1 (racemic) [Example 7, rac-N-[(3S,4R)-7-methyl-4-({[(1s,4S)-4-methylcyclohexyl]oxy}methyl)-6-oxo-1,3,4,6-tetrahydro-2H-quinolizin-3-yl]ethanesulfonamide] | 
